Data from patent publication US5011828A, “Immunostimulating guanine derivatives, compositions and methods” (priority 1988, dated 1991).
Values after ≈ are worked out from the molar mass of the structure shown. Values joined by “and” are separate entries in the source; they are usually repeats but may differ in a detail not shown here. Equal values may be shown once.

Experiments:
lymphocytes = conditions: cited from earlier work
[1] = system: murine lymphocytes (sheep red blood cells as antigen); assay: Antigen-specific adjuvanticity: direct anti-SRBC plaque forming cells, murine system; assay type: cell-based, mouse; conditions: for Peak Direct anti-SRBC PFC/Culture: murine system, at peak concentration; for Average 1 Log Plaque Values: Table 9, murine, * = single study
From the text: ^1 Adjuvanticities against sheep red blood cells [SRBC] measured in
direct plaqueforming cells per culture of lymphocytes from the mouse
strains shown. Details of the procedure are provided in the Materials and
Methods Section. Standard errors from the enumerated mean values are show
A large number of comparisons of adjuvanticity using human and murine lymphocytes as the source of leukocytes have been carried out using compounds of the present invention, as well as with new compounds excluded from the present invention. […] Interstudy comparisons are however useful for showing trends and large differences. Tables 5, 6 and 7, hereinafter, provide exemplary data from such studies in which only the activity at the peak concentration is shown for each compound and the results for the controls are omitted.
Lymphocyte cultures. The serum-containing culture medium water prepared to contain the following per 100 milliliters: 91.9 milliliters RPMI 1640 (Flow Laboratories, Inc., Rockville, Md.), 0.1 milliliters of 100×glutamine, 1.0 milliliter of 100×sodium pyruvate, 1 0 milliliter of 50×nonessential amino acids, 1.0 milliliter of water containing 10^4 units of penicillin G and 10^4 micrograms of streptomycin, and 5.0 milliliters of a supportive lot of fetal calf serum (FCS). These ingredients were admixed to apparent homogeneity. Spleen cell suspensions and populations enriched for splenic B cells were prepared as described in Goodman et al., J. Immunol., 121:1905 (1978).
For evaluation of the primary humoral immune response to sheep erythrocytes (SRBC), 5×10^6 to 10^7 murine spleen cells were cultured in 1.0 milliliter of 5% FCS-containing medium for 4 or 5 days in the presence and absence of immunogen. Cells were incubated in culture trays (Costar, Cambridge, Mass.) at 37° C. in a humidified atmosphere of 10% CO2 in air using tissue culture boxes (CBS Scientific, Del Mar, Calif.) that were rocked at a frequency of 7 cycles per minute. Pooled SRBC are available from the Colorado Serum Co., Denver Colo.
(§1) Assay of plaque forming cells (PFC). PFC secreting antibodies against SRBC were evaluated after 4 or 5 days of culture using a modification of the hemolytic plaque assay of Jerne and Nordin, Science, 140:405 (1963). The cells were brought up in complete medium before plaquing; they were plaqued in standard low Mr agarose (Bio-Rad Laboratories, Richmond Calif.), and were incubated in SRBC-absorbed guinea pig complement for one hour after a 1.5 hour incubation without complement.

murine spleen cells = assay: Mitogenicity: [3H]TdR uptake, murine system; assay type: cell-based, mouse; conditions: Table 4
[2] = system: human peripheral blood lymphocytes (sheep red blood cells as antigen); assay: Antigen-specific adjuvanticity: direct anti-SRBC plaque forming cells, human system; assay type: cell-based; conditions: for Average 1 Log Plaque Values: Table 9, human, * = single study
Description: ^1 Studies were carried in a manner similar to those of Table 1,
except that a human lymphocyte preparation was used.
The results shown in Table 7, below, were obtained similarly to those discussed above, but using human lymphocytes. Some of those studies utilized lymphocytes from more than one individual, and are therefore reported with multiple entries.
Human peripheral blood lymphocytes (PBL) were prepared from normal heparinized venous blood by Ficoll-diatrizoate density gradient centrifugation. PBL were depleted of suppressor T cells bearing the histamine type 2 receptor by adhering them to the surfaces of histamine-rabbit serum albumin-coated plastic petri dishes (Cell-ect No. 2 kit; Seragen, Boston, Mass.) and by recovering the nonadherent cells by panning as described by Wysocki and Sato, Proc. Natl. Acad. Sci. USA, 75:2844 (1978) and modified by Cavagnaro and Osband, Biotechniques, January/February:30 (1983).
The tissue culture medium employed in these studies for human lymphocytes was prepared as follows: One hundred milliliters (ml) contained 87.9 ml RPMI 1640 (Flow Laboratories, Rockville, Md.), 0.1 ml 100×glutamine,1.0 ml of 1.0 M HEPES buffer (Microbilogical Associates, Betheseda, Md.), 1.0 ml of water containing 10^4 U of penicillin G and 10^4 micrograms of streptomycin, and 10 ml of fresh autologous heat-inactivatedplasma. For evaluation of the primary humoral immune response to SRBC, lymphoid cells prepared as above were cultured at a density of 2×10^6 /ml in a volume of 1.0 ml containing 5×10^6 SRBC as antigen (Colorado Serum Co., Denver, Colo.) together with IL-2 (a partially purified preparation of human IL-2 that was free of interferon-gamma activity was obtained from Electro-Nucleonics, Inc., Silver Spring, Md.) and the guanine nucleoside derivative.
as §1

physchem = assay type: physicochemical, human; conditions: human, urine
From the text: Solubilities in urine could be expected to be lower than those for water due to the relatively higher salt content in urine than is found in water.
Each sample was filtered through a 5 micron pore-sized filter, diluted as necessary with the HPLC mobile phase, and then quantified by HPLC.

[3] = system: SJL splenocytes (irradiated CBA/CaJ splenocyte stimulators); assay: T cell proliferation in mixed leukocyte cultures, SJL splenocytes; assay type: cell-based, mouse; conditions: responder +, stimulator +, 10^-3 M
From the text: In evaluating the effect of a guanosine derivative on alloantigen-induced proliferation, it is imperative to minimize the simultaneous mitogenic response of B cells to contact with a guanosine derivative. Spleen cells from SJL mice (whose B cells are hyporesponsive to the mitogenic effect of a guanosine derivative, but not to its adjuvant activity) were used as responder cells in two studies. Those responder cells were stimulated with irradiated allogenic cells (from CBA/CaJ mice) in the presence of no added nucleoside, incremental amounts of a guanosine derivative of the invention, 7M8oGuo, or with another guanosine derivative, 8MGuo, used as a positive control.
(§2) ^1 Plus signs (+) are utilized to indicate the presence of the
material of the column heading in the culture medium, whereas minus signs
(-) are utilized to show absence of such a material from the culture
(§3) ^3 Allogeneic cells used to costimulate proliferation, after exposure
(§4) T Helper Cell Activation. 1.5×10^5 viable spleen cells from SJL mice or CBA/CaJ mouse thymocytes were cultured with or without an equal number of irradiated (2500 rads) spleen cells from CBA/CaJ or BDFl mice respectively, in 0.2 ml of culture medium in the presence of incremental concentrations of the exemplary 7,8-disubstituted guanine derivatives. The lymphocyte culture medium utilized was that described before, and was further supplemented with 2-mercaptoethanol to a final concentration of 50 uM. Thymocyte cultures also contained 10 percent (v/v) of a concanavalin A-conditioned rat spleen cell medium sold under the name Rat T Cell Monoclone by Collaborative Research. Following 90 hours of culture, one microCurie [^3 H]TdR per culture was admixed, and the resulting culture was maintained for a further six hour time period.
(§5) The cultures were harvested with a Brandel cell harvester (M24V, Biological Research and Development Laboratories, Rockville, Md.) onto glass fiber filter disks. Filter disks were transferred to plastic scintillation vials, covered with liquid scintillation cocktail, and counted in a Beckman LS5700 liquid scintillation counter.

[4] = system: CBA/CaJ thymocytes (irradiated BDF1 splenocyte stimulators); assay: T cell proliferation in mixed leukocyte cultures, CBA/CaJ thymocytes; assay type: cell-based, mouse; conditions: Study 3, responder +, stimulator +
From the text: A third and fourth study utilized thymocytes from CBA/CaJ mice as the stimulated (responder) cells, and irradiated BDFl mouse spleen cells as the stimulator cells. Two guanosine derivatives of the present invention, 7a8MGuo and 7a8oGuo, were used for these studies, with 8MGuo serving as positive control for one of the studies.
However, in the presence of interleukin-2 (IL-2), those cells develop responsiveness to allogeneic stimulation. The present studies utilizing thymocytes were therefore carried out in the presence of a co-stimulating amount of IL-2.
as §2, §3, §4, §5

## Nc1nc2c(nc(Br)n2[C@@H]2O[C@@H]3COP(=O)(O)O[C@H]3[C@H]2O)c(=O)[nH]1 [8-BrcGMP, 8-Bromoguanosine-3',5'-cyclic monophosphate]
lymphocytes
  lymphocyte mitogenicity, in words: weak synthetic intracellular lymphocyte mitogen

## Cn1c(=O)n([C@@H]2O[C@H](CO)[C@@H](O)[C@H]2O)c2nc(N)[nH]c(=O)c21 [7m8oGuo, 7-methyl-8-oxoguanosine, reference compound]
[1]; Table 5
  Peak Direct anti-SRBC PFC/Culture: 723 ± 143 PFC/Culture
[1]; Table 8, 1 × 10^-5 M
  Direct Anti-SRBC PFC/Culture: 145 PFC/Culture
[1]
  Average 1 Log Plaque Values: 22,359 ± 5154 per micromole
Murine spleen cells; 3 × 10^-4 M
  [3H] TdR Uptake: 39,620 ± 1160 cpm/culture
Murine spleen cells; 10^-3 M
  [3H] TdR Uptake: 35,070 ± 1830 cpm/culture
Murine spleen cells; 10^-4 M
  [3H] TdR Uptake: 23,640 ± 770 cpm/culture
[2]; Table 7, first group, person a
  Peak Direct anti-SRBC PFC/Culture: 1250 ± 125 PFC/Culture
[2]; Table 7, first group, person b
  Peak Direct anti-SRBC PFC/Culture: 830 ± 67 PFC/Culture
[2]; Table 7, first group, person c
  Peak Direct anti-SRBC PFC/Culture: 1225 ± 175 PFC/Culture
[2]; Table 7, second group, person a
  Peak Direct anti-SRBC PFC/Culture: 528 PFC/Culture
[2]; Table 7, second group, person b
  Peak Direct anti-SRBC PFC/Culture: 297 PFC/Culture
[2]; Table 7, second group, person c
  Peak Direct anti-SRBC PFC/Culture: 263 PFC/Culture
[2]
  Average 1 Log Plaque Values: 867 ± 217 per micromole
physchem
  solubility at 18 h: 4880 µg/mL (≈ 15.6 mM)

## CCCCn1c(=O)n([C@@H]2O[C@H](CO)[C@@H](O)[C@H]2O)c2nc(N)[nH]c(=O)c21 [compound 23644, 7-Butyl-8-oxoguanosine]
[1]; Table 5
  Peak Direct anti-SRBC PFC/Culture: 1058 ± 154 PFC/Culture
[1]; Table 8, 1 × 10^-5 M
  Direct Anti-SRBC PFC/Culture: 900 PFC/Culture
[1]
  Average 1 Log Plaque Values: 118,886 ± 80,092 per micromole
Murine spleen cells; 3 × 10^-4 M
  [3H] TdR Uptake: 41,180 ± 410 cpm/culture
Murine spleen cells; 10^-3 M
  [3H] TdR Uptake: 33,220 ± 1330 cpm/culture
Murine spleen cells; 10^-4 M
  [3H] TdR Uptake: 30,720 ± 1030 cpm/culture
[2]
  Average 1 Log Plaque Values: 52,397 per micromole
[2]; human system (Table 3)
  peak adjuvanticity values greater as compared to 7m8oGuo: about 100%

## Nc1nc2c(nc(S)n2[C@@H]2O[C@H](CO)[C@@H](O)[C@H]2O)c(=O)[nH]1 [8MGuo, 8-mercaptoguanosine, reference compound]
[1]; Table 1, C57BL/6J, 3 × 10^-4 M
  Direct Anti-SRBC PFC/Culture: 11,000 ± 140 PFC/Culture
[1]; Table 1, CBA/CaJ, 3 × 10^-4 M
  Direct Anti-SRBC PFC/Culture: 527 ± 25 PFC/Culture and 782 ± 123 PFC/Culture
[1]; Table 1, CBA/CaJ, 10^-4 M
  Direct Anti-SRBC PFC/Culture: 813 ± 129 PFC/Culture
[1]; Table 6
  Peak Direct anti-SRBC PFC/Culture: 527 ± 25 PFC/Culture
[3]; Study 1
  [3H] TdR Uptake: 28,100 ± 2700 counts per minute
[3]; Study 2
  [3H] TdR Uptake: 30,800 ± 1300 counts per minute
[4]; 10^-4 M
  [3H] TdR Uptake: 13,800 ± 1000 counts per minute
[4]; 10^-5 M
  [3H] TdR Uptake: 15,600 ± 1000 counts per minute

## CCn1c(=O)n([C@@H]2O[C@H](CO)[C@@H](O)[C@H]2O)c2nc(N)[nH]c(=O)c21 [compound 23643, 7-Ethyl-8-oxoguanosine]
[1]; Table 8, 1 × 10^-5 M
  Direct Anti-SRBC PFC/Culture: 270 PFC/Culture
[1]; murine system (Table 5), vs 8-BrGuo
  peak concentration lower than comparison compound: 1.5 log units
Murine spleen cells; 3 × 10^-4 M
  [3H] TdR Uptake: 48,690 ± 1120 cpm/culture
Murine spleen cells; 10^-3 M
  [3H] TdR Uptake: 34,160 ± 780 cpm/culture
Murine spleen cells; 10^-4 M
  [3H] TdR Uptake: 37,490 ± 540 cpm/culture
[2]; Table 7, later studies, single preparation
  Peak Direct anti-SRBC PFC/Culture: 9045 ± 310 PFC/Culture
